Test results published in publication PMC7072973, “Differential Signaling Profiles of MC4R Mutations with Three Different Ligands” (International Journal of Molecular Sciences, 2020).
Entries after “also recorded” stand apart in the source; their conditions may differ. Like-named read-outs stand apart in the source and are kept apart here.

Assays:
MC4R V103I [1] = details: agonist α-MSH, 100 nM AgRP
MC4R H158R [2] = details: 100 nM AgRP
MC4R = details: cited from earlier work
Text: The MC4R signals mainly via activation of the stimulating G protein GS, which leads to an increase in intracellular cyclic adenosine-monophosphate (cAMP). In recent years, more and more studies provided evidence that the MC4R is able to couple to a variety of signaling pathways, such as extracellular regulated kinase (ERK) activation, and to other G proteins, such as Gi/o, Gq/11 and G12/13 [10, 11, 12, 13]. These pathways might also be involved in the anorexigenic effect of the activated MC4R [14].

MC4R V103I [3] = details: synthetic agonist MTII; cited from earlier work
[4] = tested on: all tested MC4R mutations; test: GS signaling (cAMP) with AgRP, all tested MC4R mutations; details: all tested MC4R mutations and ligands; Figure S1
Protocol: (§5) Therefore, in addition to cAMP measurements to assess GS activation in the absence and presence of 100 nM AgRP, we measured Gi/o activation via determination of second messenger (cAMP) modulation by adenylyl cyclase (AC) in the absence or presence of pertussis toxin (PTX) pretreatment.
(§6) GS and Gi coupling to the MC4R were determined using the AlphaScreen™ assay (Perkin Elmer Life Science, Boston, MA, USA) performed according to the manufacturer’s protocol and described elsewhere [68]. […] Determination of Gi coupling was investigated by pretreatment with 50 µg/mL PTX 18 h before stimulation. All stimulations were performed at 37 °C and 5% CO2. Incubation was stopped by removing the compounds and lysing the cells in lysis buffer containing IBMX for 1.5–2 h at 4 °C on a shaking platform.
(§7) The determination of cAMP using the AlphaScreen™ assay is a competitive immune assay based on antibody-coupled acceptor beads that bind cAMP and streptavidin-coupled donor beads that bind to a biotinylated cAMP probe. Excitement of the donor bead leads to the conversion of ambient oxygen to a singlet state. […] Absolute amounts of cAMP are determined by the simultaneous measurement of a cAMP standard. The plate reader (Mithras 940 LB)) was used for the read out, at 565 nm.

MC4R WT [5] = test: GS signaling (cAMP) with AgRP co-stimulation, MC4R WT; type: cell-based, human
Protocol: as §5, §6, §7

MC4R WT [6] = target: T1, MC4R WT (Homo sapiens, UniProt P32245); details: HEK293, cAMP, 40 min, IBMX, mean ± SEM, 3 to 7 experiments in triplicates
Target sequence in this assay (P32245 whole entry): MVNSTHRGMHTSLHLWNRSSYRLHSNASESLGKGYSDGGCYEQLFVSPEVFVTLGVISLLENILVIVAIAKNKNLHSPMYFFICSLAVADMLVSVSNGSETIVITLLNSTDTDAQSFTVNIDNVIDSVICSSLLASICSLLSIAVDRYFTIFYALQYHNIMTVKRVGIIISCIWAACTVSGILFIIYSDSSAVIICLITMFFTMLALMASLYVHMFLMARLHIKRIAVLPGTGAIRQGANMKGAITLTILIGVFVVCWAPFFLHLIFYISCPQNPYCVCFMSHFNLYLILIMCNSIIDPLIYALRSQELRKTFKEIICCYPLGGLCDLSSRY
Protocol: as §6, §7
(§8) Concentration–response curves of each experiment were analyzed by fitting a non-linear regression model for sigmoidal response in Graph Pad Prism 6 (GraphPad Software Inc., La Jolla, CA, USA) to determine potency (EC50 values). […] Emax is the maximal response (efficiency) of the mutation, which was determined from the concentration–response curves. […]

MC4R V103I [7] = target: T2, MC4R V103I (Homo sapiens, UniProt P32245, V103I)
Target sequence in this assay (P32245 whole entry V103I): as the sequence (P32245 whole entry) above, with V103I counted along it
Protocol: as §6
The determination of cAMP using the AlphaScreen™ assay is a competitive immune assay based on antibody-coupled acceptor beads that bind cAMP and streptavidin-coupled donor beads that bind to a biotinylated cAMP probe. Excitement of the donor bead leads to the conversion of ambient oxygen to a singlet state. In close proximity of donor and acceptor beads through binding the biotinylated probe, the acceptor reacts with the singlet molecule and emits light. Absolute amounts of cAMP are determined by the simultaneous measurement of a cAMP standard. The plate reader (Mithras 940 LB)) was used for the read out, at 565 nm.
Concentration–response curves of each experiment were analyzed by fitting a non-linear regression model for sigmoidal response in Graph Pad Prism 6 (GraphPad Software Inc., La Jolla, CA, USA) to determine potency (EC50 values). For mutations that had EC50 values outside of concentration tested, it was set to the appropriate highest concentration tested. Signaling bias analysis was performed as described by Kenakin (2017) [69] using the formula (4) Δlog(Emax/EC50) = log(Emaxtest/EC50 test)−log(Emaxref/EC50 ref) with test referring to the tested receptor mutation and ref being reference (MC4R WT). Emax is the maximal response (efficiency) of the mutation, which was determined from the concentration–response curves. Where no Emax could be determined from incomplete curves (e.g., in case of AgRP co-stimulation), the response of the maximal concentration was substituted as has been described by Winpenny et al. (2016) [70].

MC4R H158R [8] = target: T3, MC4R H158R (Homo sapiens, UniProt P32245, H158R)
Target sequence in this assay (P32245 whole entry H158R): as the sequence (P32245 whole entry) above, with H158R counted along it
Protocol: as §6, §7, §8

MC4R WT [9] = target: T1, MC4R WT; details: HEK293, PTX-sensitive cAMP, mean ± SEM, 3 to 7 experiments in triplicates
Target sequence in this assay (P32245 whole entry): as the sequence (P32245 whole entry) above
Protocol: (§9) Therefore, in addition to cAMP measurements to assess GS activation in the absence and presence of 100 nM AgRP, we measured Gi/o activation via determination of second messenger (cAMP) modulation by adenylyl cyclase (AC) in the absence or presence of pertussis toxin (PTX) pretreatment. In the presence of PTX, which locks the Gαi/o subunit in its GDP-bound inactivated state, the G protein is no longer able to inhibit the AC to form cAMP [48]. Although this is an indirect way of measuring the contributions from Gi/o signaling to the total amount of intracellular cAMP, we will refer to these measurements as Gi/o coupling in order to simplify the results part.
(§10) GS and Gi coupling to the MC4R were determined using the AlphaScreen™ assay (Perkin Elmer Life Science, Boston, MA, USA) performed according to the manufacturer’s protocol and described elsewhere [68]. […] Determination of Gi coupling was investigated by pretreatment with 50 µg/mL PTX 18 h before stimulation. […]
(§11) The determination of cAMP using the AlphaScreen™ assay is a competitive immune assay based on antibody-coupled acceptor beads that bind cAMP and streptavidin-coupled donor beads that bind to a biotinylated cAMP probe. […] Absolute amounts of cAMP are determined by the simultaneous measurement of a cAMP standard. The plate reader (Mithras 940 LB)) was used for the read out, at 565 nm. […]

MC4R V103I [10] = target: T2, MC4R V103I; remark: listed apart in the source
Target sequence in this assay (P32245 whole entry V103I): as the sequence (P32245 whole entry) above, with V103I counted along it
Protocol: as §9, §10, §11

MC4R H158R [11] = target: T3, MC4R H158R; remark: listed apart in the source
Target sequence in this assay (P32245 whole entry H158R): as the sequence (P32245 whole entry) above, with H158R counted along it
Protocol: as §9, §10, §11

MC4R WT [12] = target: T1, MC4R WT; details: HEK293, NFAT-luc, 6 h, mean ± SEM, 3 to 7 experiments in triplicates
Target sequence in this assay (P32245 whole entry): as the sequence (P32245 whole entry) above
Protocol: (§12) Activation of PLC, RhoA and ERK1/2 phosphorylation was determined using luciferase-based reporter gene assays that utilize responsive elements in the promotor region of the gene encoding a firefly luciferase. For PLC activation, the NFAT responsive element (NFAT-luc, pGL4.33) was co-transfected with the receptor mutations. Similarly, co-transfections with SRF responsive element (SRF-luc, pGL4.33, Promega, Mannheim, Germany) for RhoA activation and Serum response element (SRE-luc, pGL3.4, Promega, Mannheim, Germany) for ERK1/2 phosphorylation were performed. […]
(§13) Measurement of luciferase activity provided information about the activation of the respective second messenger by transferring 10 µL lysate into a white opaque 96-well plate. Injection of 40 µL firefly luciferase substrate (Promega, Mannheim, Germany) and measurement of luminescence was performed with a plate reader (Mithras LB 940).
as §8

MC4R V103I [13] = target: T2, MC4R V103I; remark: listed apart in the source
Target sequence in this assay (P32245 whole entry V103I): as the sequence (P32245 whole entry) above, with V103I counted along it
Protocol: as §12, §13, §8

MC4R H158R [14] = target: T3, MC4R H158R; remark: listed apart in the source
Target sequence in this assay (P32245 whole entry H158R): as the sequence (P32245 whole entry) above, with H158R counted along it
Protocol: as §12, §13, §8

MC4R WT [15] = target: T1, MC4R WT; details: HEK293, SRF-luc, 6 h, mean ± SEM, 3 to 7 experiments in triplicates
Target sequence in this assay (P32245 whole entry): as the sequence (P32245 whole entry) above
Protocol: as §12, §13, §8

MC4R V103I [16] = target: T2, MC4R V103I; remark: listed apart in the source
Target sequence in this assay (P32245 whole entry V103I): as the sequence (P32245 whole entry) above, with V103I counted along it
Protocol: as §12, §13, §8

MC4R H158R [17] = target: T3, MC4R H158R; remark: listed apart in the source
Target sequence in this assay (P32245 whole entry H158R): as the sequence (P32245 whole entry) above, with H158R counted along it
Protocol: as §12, §13, §8

MC4R WT [18] = target: T1, MC4R WT; details: HEK293, SRE-luc, 6 h, mean ± SEM, 3 to 7 experiments in triplicates
Target sequence in this assay (P32245 whole entry): as the sequence (P32245 whole entry) above
Protocol: as §12, §13, §8

MC4R V103I [19] = target: T2, MC4R V103I; remark: listed apart in the source
Target sequence in this assay (P32245 whole entry V103I): as the sequence (P32245 whole entry) above, with V103I counted along it
Protocol: as §12, §13, §8

MC4R H158R [20] = target: T3, MC4R H158R; remark: listed apart in the source
Target sequence in this assay (P32245 whole entry H158R): as the sequence (P32245 whole entry) above, with H158R counted along it
Protocol: as §12, §13, §8

MC4R WT [21] = target: T1, MC4R WT; test: β-arrestin2 recruitment (NanoBRET), MC4R WT; type: cell-based; set-up: expressed in transfected cells; host or cells: HEK293; details: HEK293, β-arrestin2, 5 min, mean ± SEM, 3 to 7 experiments in triplicates
Protocol: (§1) A total of 16–20 h after transfection in 6-well plates, cells were detached, and cell number was adjusted to 2.2 × 10^5 cells/mL in Opti-MEM without phenol red supplemented with 4% FBS. Cells were divided into two pools, adding either the acceptor NanoBRET™ Ligand 618 (1 µL/mL cells of 0.1 mM solution) or the same amount of DMSO as background control. After reseeding 90 µL cell suspension/well into a white 96-well plates, incubation was continued for 4–6 h.
(§2) For measurements, 25 µL of NanoBRET™ substrate was injected using a plate reader (Mithras LB 940). Donor and acceptor emission were measured at 460 nm and 610 nm, respectively, and the BRET ratio was calculated by dividing acceptor emission by donor emission:(1) BRET ratio =emissionacceptor/emissiondonor
(§3) The ratio was corrected for background bleed through by subtracting of the background ratio (no acceptor DMSO control) and conversion to milliBRET units (mBU):(2) corrected BRET ratio [mBU]=(BRET ratiosample−BRET rationo acceptor control)×1000
(§4) To calculate the difference between stimulated and basal interaction, the NET BRET was acquired using the formula:(3) NET BRET = corrected BRET ratiostim− corrected BRET ratiobasal
Target sequence in this assay (P32245 whole entry): as the sequence (P32245 whole entry) above
Target sequence in this assay (P29067 whole entry partner): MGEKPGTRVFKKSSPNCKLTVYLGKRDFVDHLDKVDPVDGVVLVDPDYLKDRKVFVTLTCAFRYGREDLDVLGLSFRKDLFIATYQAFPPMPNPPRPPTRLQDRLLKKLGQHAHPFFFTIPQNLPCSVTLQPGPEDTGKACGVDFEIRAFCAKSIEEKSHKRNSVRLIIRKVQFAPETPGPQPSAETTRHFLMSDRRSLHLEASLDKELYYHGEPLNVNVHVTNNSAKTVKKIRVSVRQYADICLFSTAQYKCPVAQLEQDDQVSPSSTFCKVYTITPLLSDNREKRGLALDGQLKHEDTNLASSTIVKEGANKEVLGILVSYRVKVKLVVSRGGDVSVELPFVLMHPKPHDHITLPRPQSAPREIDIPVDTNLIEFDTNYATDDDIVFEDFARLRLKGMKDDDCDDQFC

MC4R H158R [22] = target: T3, MC4R H158R; type: cell-based; set-up: expressed in transfected cells; host or cells: HEK293
Protocol: as §1, §2, §3, §4
Target sequence in this assay (P32245 whole entry H158R): as the sequence (P32245 whole entry) above, with H158R counted along it
Target sequence in this assay (P29067 whole entry partner): as the sequence (P29067 whole entry partner) above

MC4R V103I [23] = target: T2, MC4R V103I; type: cell-based; set-up: expressed in transfected cells; host or cells: HEK293; details: HEK293, β-arrestin2, 5 min, mean ± SEM, 3 to 7 experiments in triplicates
Protocol: as §1, §2, §3, §4
Target sequence in this assay (P32245 whole entry V103I): as the sequence (P32245 whole entry) above, with V103I counted along it
Target sequence in this assay (P29067 whole entry partner): as the sequence (P29067 whole entry partner) above

[24] = HEK293, cAMP, 40 min, IBMX, mean ± SEM, 3 to 7 experiments in triplicates
[25] = HEK293, PTX-sensitive cAMP, mean ± SEM, 3 to 7 experiments in triplicates
[26] = HEK293, NFAT-luc, 6 h, mean ± SEM, 3 to 7 experiments in triplicates
[27] = HEK293, SRF-luc, 6 h, mean ± SEM, 3 to 7 experiments in triplicates
[28] = HEK293, SRE-luc, 6 h, mean ± SEM, 3 to 7 experiments in triplicates

With “Agouti-related peptide (SSRRCVRLHESCLGQQVPCCDPCATCYCRFFNAFCYCRKLGTAMNPCSRT; UniProt O00253 83-132, looked up) [AgRP]” the “antagonistic effect of AgRP” value (MC4R V103I [1]) was “tendency towards a reduced antagonist effect of AgRP, which was, however, not significant; also recorded: tendency towards a decreased antagonistic effect”, the “antagonistic effect of AgRP” value (MC4R H158R [2]; agonist α-MSH) was “loss-of-antagonist effect” and the “antagonistic effect of AgRP” value (MC4R H158R [2]; agonist β-MSH) was “loses its antagonistic effect for this mutation”. The “mode of action at MC4R” value (MC4R; ref 15, 17) was “inverse agonist”, the “mode of action at MC4R” value (MC4R; ref 15, 18) was “competitive antagonist” and the “AgRP antagonistic potency” value (MC4R V103I [3]) was “modestly reduced AgRP antagonistic potency”. The “effect of AgRP on GS signaling” value [4] was “decreased GS signaling for all tested MC4R mutations and ligands”.
For `CSCC[C@H](NC(=O)[C@H](CCCNC(=N)N)NC(=O)[C@H](Cc1ccc(O)cc1)NC(=O)[C@@H]1CCCN1C(=O)CNC(=O)[C@H](CCC(=O)O)NC(=O)[C@H](CC(=O)O)NC(=O)[C@H](CCCCN)NC(=O)[C@H](CCCCN)NC(=O)[C@H](CCC(=O)O)NC(=O)[C@H](C)N)C(=O)N[C@@H](CCC(=O)O)C(=O)N[C@@H](Cc1c[nH]cn1)C(=O)N[C@@H](Cc1ccccc1)C(=O)N[C@@H](CCCNC(=N)N)C(=O)N[C@@H](Cc1c[nH]c2ccccc12)C(=O)NCC(=O)N[C@@H](CO)C(=O)N1CCC[C@H]1C(=O)N1CCC[C@H]1C(=O)N[C@@H](CCCCN)C(=O)N[C@@H](CC(=O)O)C(=O)O` [β-MSH, β-melanocyte stimulating hormone], the “GS signaling in the presence of 100 nM AgRP” value (MC4R WT [5]) was “not as strongly affected compared to the one of α-MSH”, the Emax (MC4R WT [6]) was 10.05 fold over WT basal and the “GS signaling compared to WT” value (MC4R V103I [7]) was “reduced (though not significantly); also recorded: tendency towards low GS signaling”. The Emax (MC4R V103I [7]; [24]) was 8.69 fold over WT basal, the “GS signaling compared to WT” value (MC4R H158R [8]) was “increased GS and Gq/11 signaling” and the Emax (MC4R H158R [8]; [24]) was 14.85 fold over WT basal. The Emax (MC4R WT [9]) was 26.86 fold over WT basal, the “Gi/o coupling compared to WT” value (MC4R V103I [10]) was “strong positive bias towards Gi/o coupling” and the Emax (MC4R V103I [10]; [25]) was 16.65 fold over WT basal. For the same compound, the “Gi/o coupling compared to WT” value (MC4R H158R [11]) was “strong bias towards Gi/o signaling”, the Emax (MC4R H158R [11]; [25]) was 38.55 fold over WT basal and the Emax (MC4R WT [12]) was 6.58 fold over WT basal. For the same compound, the “Gq/11 (PLC) activation compared to WT” value (MC4R V103I [13]) was “increased Gq/11 coupling”, the Emax (MC4R V103I [13]; [26]) was 14.65 fold over WT basal and the “Gq/11 (PLC) activation compared to WT” value (MC4R H158R [14]) was “increased GS and Gq/11 signaling”. For the same compound, the Emax (MC4R H158R [14]; [26]) was 10.40 fold over WT basal, the Emax (MC4R WT [15]) was 2.40 fold over WT basal and the “G12/13 (RhoA) activation compared to WT” value (MC4R V103I [16]) was “strong positive bias towards Gi/o coupling, RhoA activation via G12/13”. For the same compound, the Emax (MC4R V103I [16]; [27]) was 2.29 fold over WT basal, the “G12/13 (RhoA) activation compared to WT” value (MC4R H158R [17]) was “WT-like activity in G12/13 and β-arrestin2 recruitment” and the Emax (MC4R H158R [17]; [27]) was 2.18 fold over WT basal. For the same compound, the Emax (MC4R WT [18]) was 4.94 fold over WT basal, the “ERK phosphorylation compared to WT” value (MC4R V103I [19]) was “tendency towards an ERK signaling bias, which was not significant” and the Emax (MC4R V103I [19]; [28]) was 5.14 fold over WT basal. For the same compound, the “ERK phosphorylation compared to WT” value (MC4R H158R [20]) was “augmented ERK phosphorylation”, the Emax (MC4R H158R [20]; [28]) was 5.55 fold over WT basal and the Emax (MC4R WT [21]) was 1.93 fold over WT basal. The “β-arrestin2 recruitment compared to WT” value (MC4R H158R [22]) was “WT-like activity in G12/13 and β-arrestin2 recruitment” and the Emax (MC4R V103I [23]) was 1.35 fold over WT basal.
